Read-outs that look alike come from different tables or passages of the source.
Columns and labels:
Assay type in all cases: cell-based
[1] = system: ovarian cancer (4 cell lines); experiment: CellTiter-Glo Viability Assay, ovarian cancer; settings: Homo sapiens, inhibition of cancer cell proliferation
[2] = system: pancreatic cancer (8 cell lines); experiment: CellTiter-Glo Viability Assay, pancreatic cancer; settings: Homo sapiens, inhibition of cancer cell proliferation
[3] = system: liver cancer (3 cell lines); experiment: CellTiter-Glo Viability Assay, liver cancer; settings: Homo sapiens, inhibition of cancer cell proliferation
[4] = system: colorectal cancer (6 cell lines); experiment: CellTiter-Glo Viability Assay, colorectal cancer; settings: Homo sapiens, inhibition of cancer cell proliferation
T47D = experiment: CellTiter-Glo Viability Assay, breast cancer; settings: Homo sapiens, 96 h, breast cancer, four days, read-out: EC50
MDA-MB-231-Luc = experiment: CellTiter-Glo Viability Assay, breast cancer; settings: Homo sapiens, 96 h; MDA-MB-231-Luc, breast cancer, four days; read-out: EC50
HCC1599 = experiment: CellTiter-Glo Viability Assay, breast cancer; settings: Homo sapiens, 96 h; HCC1599, breast cancer, four days; read-out: EC50
DU4475 = experiment: CellTiter-Glo Viability Assay, breast cancer; settings: Homo sapiens, DU-4475, 96 h; DU4475, breast cancer, four days; read-out: EC50
MCF7 = experiment: CellTiter-Glo Viability Assay, breast cancer; settings: Homo sapiens, 96 h; MCF7, breast cancer, four days; read-out: EC50
BT-549 = experiment: CellTiter-Glo Viability Assay, breast cancer; settings: Homo sapiens, 96 h; BT-549, breast cancer, four days; read-out: EC50
CAMA1 = experiment: CellTiter-Glo Viability Assay, breast cancer; settings: Homo sapiens, CAMA-1, 96 h; CAMA1, breast cancer, four days; read-out: EC50
ZR-75-1 = experiment: CellTiter-Glo Viability Assay, breast cancer; settings: Homo sapiens, 96 h; ZR-75-1, breast cancer, four days; read-out: EC50
[5] = system: lung cancer (4 cell lines); experiment: CellTiter-Glo Viability Assay, lung cancer; settings: Homo sapiens, inhibition of cancer cell proliferation
all 50 cell lines = experiment: CellTiter-Glo Viability Assay, average across all cell lines; settings: Homo sapiens; across all 50 cell lines; read-out: average EC50 for inhibition of cancer cell proliferation
In short: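 Cancer cell lines of several tumour types plated at 300-3,000 cells/well and exposed to compound in duplicate for four days at 37° C, 5% CO2, with DMSO-treated controls. Viability read by CellTiter-Glo luminescence (ATP content); EC50 derived from dose-response curves.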

[6] = system: prostate cancer (5 cell lines); experiment: CellTiter-Glo Viability Assay, prostate cancer; settings: Homo sapiens
[7] = system: haematopoietic & lymphoid tumors (13 cell lines); experiment: CellTiter-Glo Viability Assay, haematopoietic & lymphoid tumors; settings: Homo sapiens, inhibition of cancer cell proliferation
[8] = PA-1, PA1 cell line, read-out: Ovarian cancer, EC50 (μM) PA1
[9] = TOV112D, TOV-112D cell line, read-out: Ovarian cancer, EC50 (μM) TOV-112D
[10] = OV-90 cell line, read-out: Ovarian cancer, EC50 (μM) OV-90
[11] = OVCAR-3 cell line, read-out: Ovarian cancer, EC50 (μM) OVCAR-3
[12] = BXPC-3, BxPC3 cell line, read-out: Pancreatic cancer, EC50 BxPC3
[13] = CAPAN-1, Capan1 cell line, read-out: Pancreatic cancer, EC50 Capan1
[14] = Capan-2, Capan2 cell line, read-out: Pancreatic cancer, EC50 Capan2
[15] = MIA PaCa-2 cell line, read-out: Pancreatic cancer, EC50 MIA PaCa-2
[16] = PANC 05.04 cell line, read-out: Pancreatic cancer, EC50 PANC 05.04
[17] = PANC-1 cell line, read-out: Pancreatic cancer, EC50 PANC-1
[18] = UPAFII cell line, read-out: Pancreatic cancer, EC50 UPAFII
[19] = SNU-398, SNU398 cell line, read-out: Liver cancer, EC50 SNU398
[20] = HEPG2 cell line, read-out: Liver cancer, EC50 HEPG2
[21] = PLC/PRF/5 cell line, read-out: Liver cancer, EC50 PLC/PRF/5
[22] = HCT-116, HCT116 cell line, read-out: Colorectal cancer, EC50 (μM) HCT116
[23] = HT-29, HT29 cell line, read-out: Colorectal cancer, EC50 (μM) HT29
[24] = SW-620, SW620 cell line, read-out: Colorectal cancer, EC50 (μM) SW620
[25] = DLD-1 cell line, read-out: Colorectal cancer, EC50 (μM) DLD-1
[26] = SW48 cell line, read-out: Colorectal cancer, EC50 (μM) SW48
[27] = SW480 cell line, read-out: Colorectal cancer, EC50 (μM) SW480
[28] = A-427, A427 cell line, read-out: Lung cancer, EC50 (μM) A427
[29] = HCC78, HCC-78 cell line, read-out: Lung cancer, EC50 (μM) HCC-78
[30] = NCI-H460 cell line, read-out: Lung cancer, EC50 (μM) NCI-H460
[31] = NCI-H522 cell line, read-out: Lung cancer, EC50 (μM) NCI-H522
[32] = DU-145, read-out: Prostate cancer EC50 Du-145
[33] = PC-3, PC3 cell line, inhibition of cancer cell proliferation, read-out: Prostate cancer EC50 PC3
[34] = 22Rv1 cell line, inhibition of cancer cell proliferation, read-out: Prostate cancer EC50 22Rv1
[35] = LNCap clone FGC cell line, inhibition of cancer cell proliferation, read-out: Prostate cancer EC50 LNCap clone FGC
[36] = VCaP (Sigma) cell line, inhibition of cancer cell proliferation, read-out: Prostate cancer EC50 VCaP (Sigma)
[37] = DND41, DND-41 cell line, read-out: Haematopoietic & Lymphoid tumors, EC50 (μM) DND-41
[38] = MV4-11, MV-4-11 cell line, read-out: Haematopoietic & Lymphoid tumors, EC50 (μM) MV-4-11
[39] = Rec1, REC-1 cell line, read-out: Haematopoietic & Lymphoid tumors, EC50 (μM) REC-1
[40] = SU-DHL-4, SUDHL4 cell line, read-out: Haematopoietic & Lymphoid tumors, EC50 (μM) SUDHL4
[41] = HL-60 cell line, read-out: Haematopoietic & Lymphoid tumors, EC50 (μM) HL-60
[42] = JM1 cell line, read-out: Haematopoietic & Lymphoid tumors, EC50 (μM) JM1
[43] = JURKAT, Clone E6-1 cell line, read-out: Haematopoietic & Lymphoid tumors, EC50 (μM) JURKAT, Clone E6-1
[44] = JeKo-1 cell line, read-out: Haematopoietic & Lymphoid tumors, EC50 (μM) JeKo-1
[45] = KASUMI-1 cell line, read-out: Haematopoietic & Lymphoid tumors, EC50 (μM) KASUMI-1
[46] = Loucy cell line, read-out: Haematopoietic & Lymphoid tumors, EC50 (μM) Loucy
[47] = MOLT-4 cell line, read-out: Haematopoietic & Lymphoid tumors, EC50 (μM) MOLT-4
[48] = TF-1 cell line, read-out: Haematopoietic & Lymphoid tumors, EC50 (μM) TF-1
[49] = TOLEDO cell line, read-out: Haematopoietic & Lymphoid tumors, EC50 (μM) TOLEDO

CN1CCN(c2cc(C(=O)Nc3cc4cc(-c5cnn(C)c5N)ccc4cn3)ccn2)CC1 [Compound 75]
EC50 [1, 8]: 0.12 µM
EC50 [1, 9]: 0.108 µM
EC50 [1, 10]: 0.256 µM
EC50 [1, 11]: 0.067 µM
EC50 [2, 12]: 284 nM
EC50 [2, 13]: 152 nM
EC50 [2, 14]: 289 nM
EC50 [2, 15]: 84 nM
EC50 [2, 16]: 138 nM
EC50 [2, 17]: 251 nM
EC50 [2, 18]: 83 nM
EC50 [3, 19]: 34 nM
EC50 [3, 20]: 130 nM
EC50 [3, 21]: 301 nM
EC50 [4, 22]: 0.102 µM
EC50 [4, 23]: 0.187 µM
EC50 [4, 24]: 0.067 µM
EC50 [4, 25]: 0.141 µM
EC50 [4, 26]: 0.051 µM
EC50 [4, 27]: 0.143 µM
EC50 (T47D): 246 nM
EC50 (MDA-MB-231-Luc): 188 nM
EC50 (HCC1599): 91 nM
EC50 (DU4475): 123 nM
EC50 (MCF7): 483 nM
EC50 (BT-549): 169 nM
EC50 (CAMA1): 216 nM
EC50 (ZR-75-1): 177 nM
EC50 [5, 28]: 0.114 µM
EC50 [5, 29]: 0.19 µM
EC50 [5, 30]: 0.196 µM
EC50 [5, 31]: 0.079 µM
EC50 (all 50 cell lines): 167 nM
EC50 [6, 32]: 208 nM
EC50 [6, 33]: 159 nM
EC50 [6, 34]: 113 nM
EC50 [6, 35]: 305 nM
EC50 [6, 36]: 333 nM
EC50 [7, 37]: 0.154 µM
EC50 [7, 38]: 0.042 µM
EC50 [7, 39]: 0.045 µM
EC50 [7, 40]: 0.155 µM
EC50 [7, 41]: 0.449 µM
EC50 [7, 42]: 0.044 µM
EC50 [7, 43]: 0.333 µM
EC50 [7, 44]: 0.046 µM
EC50 [7, 45]: 0.119 µM
EC50 [7, 46]: 0.142 µM
EC50 [7, 47]: 0.162 µM
EC50 [7, 48]: 0.225 µM
EC50 [7, 49]: 0.046 µM

O=C(Nc1ccc(OCCN2CCCC2)cc1)c1n[nH]cc1/C=C/c1cccnc1 [Compound 92]
EC50 [1, 8]: 9.92 µM
EC50 [1, 9]: 7.05 µM
EC50 [1, 10]: > 10 µM
EC50 [1, 11]: 8.42 µM
EC50 [2, 12]: > 10000 nM
EC50 [2, 13]: > 10000 nM
EC50 [2, 14]: > 10000 nM
EC50 [2, 15]: 5860 nM
EC50 [2, 16]: > 10000 nM
EC50 [2, 17]: > 10000 nM
EC50 [2, 18]: > 10000 nM
EC50 [3, 19]: 4920 nM
EC50 [3, 20]: > 10000 nM
EC50 [3, 21]: > 10000 nM
EC50 [4, 22]: 6.22 µM
EC50 [4, 23]: > 10 µM
EC50 [4, 24]: 5.35 µM
EC50 [4, 25]: 2.53 µM
EC50 [4, 26]: 1.87 µM
EC50 [4, 27]: > 10 µM
EC50 (T47D): 867 nM
EC50 (MDA-MB-231-Luc): > 10000 nM
EC50 (HCC1599): 312 nM
EC50 (DU4475): 6040 nM
EC50 (MCF7): > 10000 nM
EC50 (BT-549): 5510 nM
EC50 (CAMA1): 8720 nM
EC50 (ZR-75-1): > 10000 nM
EC50 [5, 28]: 8.56 µM
EC50 [5, 29]: > 10 µM
EC50 [5, 30]: > 10 µM
EC50 [5, 31]: 7.15 µM
EC50 (all 50 cell lines): 6830 nM
EC50 [6, 32]: > 10000 nM
EC50 [6, 33]: > 10000 nM
EC50 [6, 34]: 867 nM
EC50 [6, 35]: 9150 nM
EC50 [6, 36]: 5580 nM
EC50 [7, 37]: > 10 µM
EC50 [7, 38]: 0.675 µM
EC50 [7, 39]: 2.25 µM
EC50 [7, 40]: 4.87 µM
EC50 [7, 41]: 7.97 µM
EC50 [7, 42]: 3.24 µM
EC50 [7, 43]: 3.81 µM
EC50 [7, 44]: 2.18 µM
EC50 [7, 45]: 1.63 µM
EC50 [7, 46]: 3.96 µM
EC50 [7, 47]: 6.76 µM
EC50 [7, 48]: 6.97 µM
EC50 [7, 49]: 2.51 µM
